Target: T1, PD-1/PD-L1 (Homo sapiens, UniProt Q9NZQ7)
T1 construct: Recombinant human PD-L1 protein (19-238) with a His-tag at the C-terminus; purchased AcroBiosystems PD1-H5229 (PD-L1); PD1-H5257 (PD-1)
Assay: PD-1/PD-L1 homogenous time-resolved fluorescence (HTRF) binding assay
Protocol: Resolved Fluorescence (HTRF) Binding Assay
The assays were conducted in a standard black 384-well polystyrene plate with a final volume of 20 μL. Inhibitors were first serially diluted in DMSO and then added to the plate wells before the addition of other reaction components. The final concentration of DMSO in the assay was 1%. The assays were carried out at 25° C. in the PBS buffer (pH 7.4) with 0.05% Tween-20 and 0.1% BSA. Recombinant human PD-L1 protein (19-238) with a His-tag at the C-terminus was purchased from AcroBiosy stems (PD1-H5229). Recombinant human PD-1 protein (25-167) with Fc tag at the C-terminus was also purchased from AcroBiosystems (PD1-H5257). PD-L1 and PD-1 proteins were diluted in the assay buffer and 10 μL was added to the plate well. Plates were centrifuged and proteins were preincubated with inhibitors for 40 min. The incubation was followed by the addition of 10 μL of HTRF detection buffer supplemented with Europium cryptate-labeled anti-human IgG (PerkinElmer-AD0212) specific for Fc and anti-His antibody conjugated to SureLight®-Allophycocyanin (APC, PerkinElmer-AD0059H). After centrifugation, the plate was incubated at 25° C. for 60 min. Before reading on a PHERAstar FS plate reader (665 nm/620 nm ratio). Final concentrations in the assay were […] PD1, 10 nM PD-L1, 1 nM europium anti-human IgG and 20 nM anti-His-Allophycocyanin. IC50 determination was performed by fitting the curve of percent control activity versus the log of the inhibitor concentration using the GraphPad Prism 5.0 software.

T1 sequence (Q9NZQ7 19-238): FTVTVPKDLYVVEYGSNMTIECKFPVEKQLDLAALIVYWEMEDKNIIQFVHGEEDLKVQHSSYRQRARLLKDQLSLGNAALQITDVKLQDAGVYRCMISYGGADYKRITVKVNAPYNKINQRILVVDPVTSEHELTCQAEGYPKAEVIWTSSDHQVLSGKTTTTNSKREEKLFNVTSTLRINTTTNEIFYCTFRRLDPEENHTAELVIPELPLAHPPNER

Row | SMILES | IC50 (Table 6, class symbols) | IC50 (Table 6, numeric values)
1 | CC[C@H](NCc1cc2nc(-c3cccc(-c4ccccc4)c3C)oc2cc1OC(F)F)C(=O)O [Example 40, (S)-2-(((6-(difluoromethoxy)-2-(2-methyl-[1,1′-biphenyl]-3-yl)benzo[d]oxazol-5-yl)methyl)amino)butanoic acid] | 0.1 to 10 nM | –
2 | CC[C@@H](NCc1cc2nc(-c3cccc(-c4ccccc4)c3C)oc2cc1OC(F)F)C(=O)O [Example 41, (R)-2-(((6-(difluoromethoxy)-2-(2-methyl-[1,1′-biphenyl]-3-yl)benzo[d]oxazol-5-yl)methyl)amino)butanoic acid] | 10 to 100 nM | –
3 | Cc1c(-c2ccccc2)cccc1-c1nc2cc(CN[C@H](CO)C(=O)O)c(OC(F)F)cc2o1 [Example 42, ((6-(difluoromethoxy)-2-(2-methyl-[1,1′-biphenyl]-3-yl)benzo[d]oxazol-5-yl)methyl)-D-serine] | – | 3.4 nM
4 | Cc1c(-c2ccccc2)cccc1-c1nc2cc(CN[C@@H](CO)C(=O)O)c(OC(F)F)cc2o1 [Example 43, ((6-(difluoromethoxy)-2-(2-methyl-[1,1′-biphenyl]-3-yl)benzo[d]oxazol-5-yl)methyl)-L-serine] | – | 1.8 nM
5 | N#Cc1c(-c2ccccc2)cccc1-c1nc2cc(CN3CCC[C@H]3C(=O)O)c(OC(F)F)cc2o1 [Example 44, ((2-(2-cyano-[1,1′-biphenyl]-3-yl)-6-(difluoromethoxy)benzo[d]oxazol-5-yl)methyl)-L-proline] | 0.1 to 10 nM | –
6 | N#Cc1ccccc1-c1cccc(-c2nc3cc(CN4CCC[C@H]4C(=O)O)c(OC(F)F)cc3o2)c1C#N [Example 45, ((2-(2,2′-dicyano-[1,1′-biphenyl]-3-yl)-6-(difluoromethoxy)benzo[d]oxazol-5-yl)methyl)-L-proline] | 10 to 100 nM | –
7 | Cc1c(-c2ccccc2)cccc1-c1nc2cc(CN3CCCC3(C)C(=O)O)c(OC(F)F)cc2o1 (stereo not drawn) [Example 46, 1-((6-(difluoromethoxy)-2-(2-methyl-[1,1′-biphenyl]-3-yl)benzo[d]oxazol-5-yl)methyl)-2-methylpyrrolidine-2-carboxylic acid] | 0.1 to 10 nM | –
8 | Cc1c(-c2ccc3c(c2)OCCO3)cccc1-c1nc2cc(CN3CCC[C@H]3C(=O)O)c(OC(F)F)cc2o1 [Example 47, ((6-(difluoromethoxy)-2-(3-(2,3-dihydrobenzo[b][1,4]dioxin-6-yl)-2-methylphenyl)benzo[d]oxazol-5-yl)methyl)-L-proline] | 0.1 to 10 nM | –
9 | Cc1c(-c2ccccc2)cccc1-c1nc2cc(CN3CCC3C(=O)O)c(OC(F)F)cc2o1 (stereo not drawn) [Example 48, 1-((6-(difluoromethoxy)-2-(2-methyl-[1,1′-biphenyl]-3-yl)benzo[d]oxazol-5-yl)methyl)azetidine-2-carboxylic acid] | 0.1 to 10 nM | –
10 | Cc1c(-c2ccccc2)cccc1-c1nc2cc(CN3CCCC3(C)C(=O)O)c(OC(F)F)cc2o1 (stereo not drawn) [Example 50, 1-((6-(difluoromethoxy)-2-(2-methyl-[1,1′-biphenyl]-3-yl)benzo[d]oxazol-5-yl)methyl)-2-methylpyrrolidine-2-carboxylic acid] | 0.1 to 10 nM | –
11 | Cc1c(-c2nc3cc(CN4CCC[C@H]4C(=O)O)c(OC(F)F)cc3o2)cccc1-c1ccccc1C#N [Example 51, ((2-(2′-cyano-2-methyl-[1,1′-biphenyl]-3-yl)-6-(difluoromethoxy)benzo[d]oxazol-5-yl)methyl)proline] | 10 to 100 nM | –
12 | Cc1c(-c2ccccc2)cccc1-c1nc2cc(CN3COC[C@H]3C(=O)O)c(OC(F)F)cc2o1 [Example 53, (S)-3-((6-(difluoromethoxy)-2-(2-methyl-[1,1′-biphenyl]-3-yl)benzo[d]oxazol-5-yl)methyl)oxazolidine-4-carboxylic acid] | 10 to 100 nM | –
13 | Cc1c(-c2ccccc2)cccc1-c1nc2cc(CN3CCCC[C@H]3C(=O)O)c(OCC(F)(F)F)cc2o1 [Example 54, (S)-1-((2-(2-methyl-[1,1′-biphenyl]-3-yl)-6-(2,2,2-trifluoroethoxy)benzo[d]oxazol-5-yl)methyl)piperidine-2-carboxylic acid] | 10 to 100 nM | –
14 | Cc1c(-c2ccccc2)cccc1-c1nc2cc(CN3CCCCC3C(=O)O)c(OCC(F)F)cc2o1 (stereo not drawn) [Example 55, 1-((6-(2,2-difluoroethoxy)-2-(2-methyl-[1,1′-biphenyl]-3-yl)benzo[d]oxazol-5-yl)methyl)piperidine-2-carboxylic acid] | 10 to 100 nM | –
15 | Cc1c(-c2ccccc2)cccc1-c1nc2cc(CN[C@H](C)C(=O)O)c(OCC(F)(F)F)cc2o1 [Example 56, ((2-(2-methyl-[1,1′-biphenyl]-3-yl)-6-(2,2,2-trifluoroethoxy)benzo[d]oxazol-5-yl)methyl)-D-alanine] | 10 to 100 nM | –
16 | N#Cc1c(-c2ccccc2)cccc1-c1nc2cc(CN3CCOC[C@H]3C(=O)O)c(OCC(F)(F)F)cc2o1 [Example 57, (S)-4-((2-(2-cyano-[1,1′-biphenyl]-3-yl)-6-(2,2,2-trifluoroethoxy)benzo[d]oxazol-5-yl)methyl)morpholine-3-carboxylic acid] | 10 to 100 nM | –
17 | Cc1c(-c2ccccc2)cccc1-c1nc2cc(CN3CCOC[C@H]3C(=O)O)c(OCC(F)(F)F)cc2o1 [Example 58, (S)-4-((2-(2-methyl-[1,1′-biphenyl]-3-yl)-6-(2,2,2-trifluoroethoxy)benzo[d]oxazol-5-yl)methyl)morpholine-3-carboxylic acid] | 10 to 100 nM | –
18 | Cc1c(-c2ccccc2)cccc1-c1nc2cc(CN[C@@H](C)C(=O)O)c(OCC(F)(F)F)cc2o1 [Example 59, ((2-(2-methyl-[1,1′-biphenyl]-3-yl)-6-(2,2,2-trifluoroethoxy)benzo[d]oxazol-5-yl)methyl)-L-alanine] | 10 to 100 nM | –
19 | Cc1c(-c2ccccc2)cccc1-c1nc2cc(CN3CCC[C@H]3C(=O)O)c(OCC(F)(F)F)cc2o1 [Example 60, ((2-(2-methyl-[1,1′-biphenyl]-3-yl)-6-(2,2,2-trifluoroethoxy)benzo[d]oxazol-5-yl)methyl)-L-proline] | 10 to 100 nM | –
20 | Cc1c(-c2ccccc2)cccc1-c1nc2cc(CN3CCCC3(C)C(=O)O)c(OCC(F)(F)F)cc2o1 (stereo not drawn) [Example 61, 2-methyl-1-((2-(2-methyl-[1,1′-biphenyl]-3-yl)-6-(2,2,2-trifluoroethoxy)benzo[d]oxazol-5-yl)methyl)pyrrolidine-2-carboxylic acid] | 10 to 100 nM | –
21 | Cc1c(-c2ccccc2)cccc1-c1nc2cc(CN3CCC[C@H]3C(=O)O)c(OC(F)(F)F)cc2o1 [Example 63, ((2-(2-methyl-[1,1′-biphenyl]-3-yl)-6-(trifluoromethoxy)benzo[d]oxazol-5-yl)methyl)-L-proline] | 0.1 to 10 nM | –
22 | Cc1c(-c2ccccc2)cccc1-c1nc2cc(CN3CCC[C@H]3C(=O)O)c(OS(C)(=O)=O)cc2o1 [Example 64, ((2-(2-methyl-[1,1′-biphenyl]-3-yl)-6-((methylsulfonyl)oxy)benzo[d]oxazol-5-yl)methyl)-L-proline] | 0.1 to 10 nM | –
23 | Cc1c(-c2ccccc2)cccc1-c1nc2cc(CN3CCC[C@H]3C(=O)O)c([S+](C)[O-])cc2o1 (stereo partly drawn) [Example 65, ((2-(2-methyl-[1,1′-biphenyl]-3-yl)-6-(methylsulfinyl)benzo[d]oxazol-5-yl)methyl)-L-proline] | – | 5 nM
24 | Cc1c(-c2ccccc2)cccc1-c1nc2cc(CN3CCC[C@H]3C(=O)O)c(S(C)(=O)=O)cc2o1 [Example 66, ((2-(2-methyl-[1,1′-biphenyl]-3-yl)-6-(methylsulfonyl)benzo[d]oxazol-5-yl)methyl)-L-proline] | 0.1 to 10 nM | –
25 | Cc1c(-c2ccccc2)cccc1-c1nc2cc3c(cc2o1)OCCN(C)C3 [Example 67, 8-methyl-2-(2-methyl-[1,1′-biphenyl]-3-yl)-6,7,8,9-tetrahydrooxazolo[5′,4′:4,5]benzo[1,2-f][1,4]oxazepine] | 100 to 1000 nM | –
26 | Cc1c(-c2ccccc2)cccc1-c1nc2cc(CN3CCCCC3C(=O)O)c3c(c2o1)C(=O)CO3 (stereo not drawn) [Example 68, 1-((2-(2-methyl-[1,1′-biphenyl]-3-yl)-8-oxo-7,8-dihydrobenzofuro[5,4-d]oxazol-5-yl)methyl)piperidine-2-carboxylic acid] | 100 to 1000 nM | –
27 | Cc1c(-c2ccccc2)cccc1-c1nc2cc(CN3CCCCC3C(=O)O)n3ncnc3c2o1 (stereo not drawn) [Example 69, 1-((8-(2-methyl-[1,1′-biphenyl]-3-yl)oxazolo[5,4-c][1,2,4]triazolo[1,5-a]pyridin-5-yl)methyl)piperidine-2-carboxylic acid] | 100 to 1000 nM | –
28 | Cc1c(-c2ccccc2)cccc1-c1nc2cc3c(cc2o1)OC[C@@H](C(=O)O)NC3 [Example 70, (S)-2-(2-methyl-[1,1′-biphenyl]-3-yl)-6,7,8,9-tetrahydrooxazolo[5′,4′:4,5]benzo[1,2-f][1,4]oxazepine-7-carboxylic acid] | 100 to 1000 nM | –
29 | Cc1c(-c2ccccc2)cccc1-c1nc2cc3c(cc2o1)OCCN(CC(=O)O)C3 [Example 71, 2-(2-(2-methyl-[1,1′-biphenyl]-3-yl)-6,7-dihydrooxazolo[5′,4′:4,5]benzo[1,2-f][1,4]oxazepin-8(9H)-yl)acetic acid] | 100 to 1000 nM | –
30 | Cc1c(-c2ccccc2)cccc1-c1nc2cc3c(cc2o1)OC[C@H](C(=O)O)NC3 [Example 72, (R)-2-(2-methyl-[1,1′-biphenyl]-3-yl)-6,7,8,9-tetrahydrooxazolo[5′,4′:4,5]benzo[1,2-f][1,4]oxazepine-7-carboxylic acid] | 100 to 1000 nM | –
